# Experimental data from patent US6506766B1 (Abbott Laboratories, priority 1998, dated 2003).
# Read-outs that look alike come from different tables or passages of the source.
# Assays:
# [1] = molecular target: T1, human glucocorticoid receptor-α [GRX] isoform (Homo sapiens, UniProt P04150); assay: Radioligand binding with human glucocorticoid receptor cytosol ([3H]-dexamethasone competition)
# T1 construct: host or cells: insect SF21 cells (baculovirus)
# T1 sequence (P04150 1-777): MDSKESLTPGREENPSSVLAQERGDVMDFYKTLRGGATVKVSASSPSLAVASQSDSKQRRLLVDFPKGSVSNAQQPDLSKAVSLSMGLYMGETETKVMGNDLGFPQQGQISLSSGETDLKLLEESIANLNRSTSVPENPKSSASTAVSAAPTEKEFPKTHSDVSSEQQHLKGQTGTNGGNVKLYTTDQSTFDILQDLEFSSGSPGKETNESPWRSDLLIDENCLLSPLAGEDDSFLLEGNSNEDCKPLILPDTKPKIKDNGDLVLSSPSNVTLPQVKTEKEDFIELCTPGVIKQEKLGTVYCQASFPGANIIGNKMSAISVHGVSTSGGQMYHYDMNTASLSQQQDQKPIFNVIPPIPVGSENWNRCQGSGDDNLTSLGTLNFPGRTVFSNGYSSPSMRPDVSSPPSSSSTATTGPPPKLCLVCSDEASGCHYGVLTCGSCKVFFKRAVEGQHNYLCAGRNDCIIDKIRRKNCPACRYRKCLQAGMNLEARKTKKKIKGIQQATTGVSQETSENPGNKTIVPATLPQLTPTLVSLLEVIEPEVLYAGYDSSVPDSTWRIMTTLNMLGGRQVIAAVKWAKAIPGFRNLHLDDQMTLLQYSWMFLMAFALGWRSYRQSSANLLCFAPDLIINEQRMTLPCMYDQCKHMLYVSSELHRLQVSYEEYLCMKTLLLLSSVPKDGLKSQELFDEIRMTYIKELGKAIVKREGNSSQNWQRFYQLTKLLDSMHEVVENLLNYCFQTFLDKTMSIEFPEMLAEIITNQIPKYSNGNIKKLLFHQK
# [2] = molecular target: T2, human progesterone receptor-A [PRA] isoform (Homo sapiens, UniProt P06401); assay: Radioligand binding with human progesterone receptor cytosol ([3H]-progesterone competition)
# T2 construct: host or cells: insect SF21 cells (baculovirus)
# T2 sequence (P06401 1-769 isoform P06401-2): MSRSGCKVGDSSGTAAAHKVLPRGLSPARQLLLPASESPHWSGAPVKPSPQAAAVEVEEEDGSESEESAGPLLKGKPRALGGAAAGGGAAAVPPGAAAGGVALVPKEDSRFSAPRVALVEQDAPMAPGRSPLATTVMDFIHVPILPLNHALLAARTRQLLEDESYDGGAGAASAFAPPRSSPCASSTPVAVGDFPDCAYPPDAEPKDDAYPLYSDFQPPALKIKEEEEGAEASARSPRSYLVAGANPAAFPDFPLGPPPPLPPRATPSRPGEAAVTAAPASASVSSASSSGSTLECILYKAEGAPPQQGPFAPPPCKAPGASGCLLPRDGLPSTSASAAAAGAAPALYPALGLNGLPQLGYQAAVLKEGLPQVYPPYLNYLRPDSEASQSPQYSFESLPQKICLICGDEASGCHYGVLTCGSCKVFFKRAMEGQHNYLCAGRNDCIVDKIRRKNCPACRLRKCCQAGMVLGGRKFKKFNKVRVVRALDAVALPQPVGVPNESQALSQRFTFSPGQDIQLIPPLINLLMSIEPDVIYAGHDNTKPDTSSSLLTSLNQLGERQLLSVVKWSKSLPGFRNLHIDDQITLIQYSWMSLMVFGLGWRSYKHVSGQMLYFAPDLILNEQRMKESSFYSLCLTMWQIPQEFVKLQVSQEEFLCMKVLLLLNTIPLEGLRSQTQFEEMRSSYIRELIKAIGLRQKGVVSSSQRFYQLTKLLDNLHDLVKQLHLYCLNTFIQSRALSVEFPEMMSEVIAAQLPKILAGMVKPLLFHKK
# [3] = GRX cytosol expressed in insect SF21 cells, [3H]-Dex ~0.9 nM, 4° C. overnight, Ki by Cheng-Prusoff, KL ~[…], read-out: Ki (nM) GR
# [4] = PRA cytosol expressed in insect SF21 cells, [3H]Prog ~0.8 nM, 4° C. overnight, Ki by Cheng-Prusoff, KL ~4.5 nM, read-out: Ki (nM) PR
melting point,"Ki [1, 3]","Ki [2, 4]",Structure (SMILES),Ki ([1]; Ki (nM) GR),Ki ([2]; Ki (nM) PR)
130 to 135 °C,201 nM,≥ 10000 nM,COc1cccc2c1-c1ccc3c(c1C(CNC(=O)OC(C)(C)C)O2)C(C)=CC(C)(C)N3 (stereo not drawn) [Example 206],–,–
198 to 201 °C,–,–,"C=Cc1cccc2c1-c1ccc3c(c1C(C1(C)CC=CCC1)O2)C(C)=CC(C)(C)N3 (stereo not drawn) [Example 341, 2,5-Dihydro-10-ethenyl-5-[1-methyl-3-cyclohexenyl]-2,2,4-trimethyl-1H-[1]benzopyrano[3,4-f]quinoline]",–,–
218 to 224 °C,112 nM,≥ 10000 nM,"C=Cc1cccc2oc(=O)c3c4c(ccc3c12)NC(C)(C)C=C4C [Example 339, 2,5-Dihydro-10-ethenyl-5-oxo-2,2,4-trimethyl-1H-[1]benzopyrano[3,4-f]quinoline]",–,–
130 to 135 °C,46 nM,3900 nM,"COc1cccc2c1-c1ccc3c(c1C(CC=C1CCCCC1)O2)C(C)=CC(C)(C)N3 (stereo not drawn) [Example 187, 2,5-Dihydro-10-methoxy-5-(2-cyclohexylidenylethyl)-2,2,4-trimethyl-1H-[1]benzopyrano[3,4-f]quinoline]",–,–
150 to 152 °C,652 nM,≥ 10000 nM,"COC(=O)c1cccc2c1-c1ccc3c(c1C(c1ccccc1)O2)C(C)=CC(C)(C)N3 (stereo not drawn) [Example 335, Methyl 2,5-Dihydro-5-phenyl-2,2,4-trimethyl-1H-[1]benzopyrano[3,4-f]quinoline-10-carboxylate]",–,–
–,1.4 nM,1700 nM,"C=CCC1Oc2cccc(OC)c2-c2ccc3c(c21)C(C)=CC(C)(C)N3 (single isomer, unassigned; (-)) [Example 36, (−)2,5-Dihydro-10-methoxy-2,2,4-trimethyl-5-(2-propenyl)-1H-[1]benzopyrano[3,4-f]quinoline]",–,–
–,3.1 nM,279 nM,"COc1c(O)ccc2c1-c1ccc3c(c1/C(=C/c1cccc(F)c1F)O2)C(C)=CC(C)(C)N3 [Example 373, (Z)-9-Hydroxy-10-methoxy-5-([2,3-difluorophenyl]methylene)-2,2,4-trimethyl-1H-2,5-dihydro-[1]benzopyrano[3,4-f]quinoline]",–,–
–,16 nM,492 nM,"COc1cccc2c1-c1ccc3c(c1C(C1CC1)O2)C(C)=CC(C)(C)N3 (stereo not drawn) [Example 319, 2,5-Dihydro-10-methoxy-5-cyclopropyl-2,2,4-trimethyl-1H-[1]benzopyrano[3,4-f]quinoline]",–,–
–,0.7 nM,390 nM,C=CCC1Oc2ccc(OC(=O)CCCC(=O)N3CCOCC3)c(OC)c2-c2ccc3c(c21)C(C)=CC(C)(C)N3 (stereo not drawn) [Example 440],–,–
–,2.7 nM,3440 nM,"COC(=O)CC1Oc2cccc(OC)c2-c2ccc3c(c21)C(C)=CC(C)(C)N3 (stereo not drawn) [Example 46, Methyl 2,5-Dihydro-10-methoxy-2,2,4-trimethyl-1H-[1]benzopyrano[3,4-f]quinoline-5-acetate]",–,–
–,–,–,"COc1cccc2c1-c1ccc3c(c1C(c1ccc(OC(=O)N(C)C)cc1)O2)C(C)=CC(C)(C)N3 (stereo not drawn) [Example 97, [4-(2,5-Dihydro-10-methoxy-2,2,4-trimethyl-1H-1benzopyrano[3,4-f]quinolin-5-yl)phenyl]dimethylcarbamate]",320 nM,≥ 10000 nM
–,152 nM,≥ 10000 nM,"C=CCOc1cccc2c1-c1ccc3c(c1C(c1ccccc1)O2)C(C)=CC(C)(C)N3 (stereo not drawn) [Example 76, 2,5-Dihydro-2,2,4-trimethyl-5-phenyl-10-(2-prenyloxy)-1H-[1]benzopyrano[3,4-f]quinoline]",–,–
